Test results published in patent publication US5405847A, “4,5-dihydro-4-oxo-pyrrolo[1,2-a]quinoxalinones and corresponding aza analogs and a process for their preparation” (Asta Medica Aktiengesellschaft, priority 1992, dated 1995).

Tests used:
phosphordiesterase = phosphordiesterase inhibition; format: biochemical
From the text: Examples for the compounds of Formula I

mast cells = assay: Allergically-induced histamine release from mast cells (rat); format: cell-based; conditions: Mast cell
Description: (§1) The acute toxicity of the compounds of the invention in the mouse (expressed by the LD 50 mg/kg; method after Miller and Tainter: Proc. Soc. Exper. Biol. a. Med. 57 (1944) 261) is for example above 1000 mg/kg in oral application. More detailed information on the previously mentioned test models. The figures cited relate to the compounds of the invention, in particular the compounds according to Example I.
1. Allergically-induced histamine release from mast cells (rat)

monocytes = assay: Lipopolysaccharide-induced interleucin-1 production of monocytes (man); format: cell-based; conditions: Homo sapiens, Monocyte
Description: as §1
2. Lipopolysaccharide-induced interleucin-1 production of monocytes (man)

5-Lipoxygenase = target: T1, 5-Lipoxygenase (Rattus norvegicus, UniProt P12527); assay: 5-Lipoxygenase inhibition in peritoneal macrophages (rat); format: cell-based
T1 construct: endogenous in cells; host or cells: rat peritoneal macrophages
T1 sequence (P12527 1-673): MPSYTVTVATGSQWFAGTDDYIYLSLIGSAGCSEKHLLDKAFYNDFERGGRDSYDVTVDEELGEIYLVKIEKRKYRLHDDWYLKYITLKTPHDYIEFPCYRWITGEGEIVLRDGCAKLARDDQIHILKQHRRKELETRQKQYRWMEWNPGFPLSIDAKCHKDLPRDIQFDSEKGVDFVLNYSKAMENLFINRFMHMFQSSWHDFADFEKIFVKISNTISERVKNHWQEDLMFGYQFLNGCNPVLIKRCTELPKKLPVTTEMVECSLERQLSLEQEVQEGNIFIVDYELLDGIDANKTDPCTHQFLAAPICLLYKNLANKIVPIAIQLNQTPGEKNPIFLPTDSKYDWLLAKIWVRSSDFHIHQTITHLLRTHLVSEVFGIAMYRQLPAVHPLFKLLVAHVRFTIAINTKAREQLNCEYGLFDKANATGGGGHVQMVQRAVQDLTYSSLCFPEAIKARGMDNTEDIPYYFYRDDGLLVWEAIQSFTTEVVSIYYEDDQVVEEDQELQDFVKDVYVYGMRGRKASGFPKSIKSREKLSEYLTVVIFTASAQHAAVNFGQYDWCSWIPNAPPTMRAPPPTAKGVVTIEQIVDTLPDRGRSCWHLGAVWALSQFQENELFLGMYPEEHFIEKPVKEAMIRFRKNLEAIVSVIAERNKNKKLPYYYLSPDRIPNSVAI
Description: as §1
4. 5-Lipoxygenase inhibition in peritoneal macrophages (rat)

[1] = tested on: Asthma-induced by domestic dust mites; assay: Asthma induced by domestic dust mites (rabbits); format: in vivo; conditions: 10 mg/ml as aerosol for 2 minutes
Description: as §1
2. Asthma-induced by domestic dust mites (rabbits)
Lit.: J. Allergy Clin. Immunol. 87, 1991, p. 312 Administration/dosage: 10 mg/ml as aerosol for 2 minutes

[2] = tested on: Ovalbumin-induced asthmatic late phase eosinophilia in the lung; assay: Ovalbumin-induced asthmatic late phase eosinophilia in the lung (guinea pigs); format: in vivo
Description: as §1
1. Ovalbumin-induced asthmatic late phase eosinophilia in the lung (guinea pigs)

alveolar macrophages = assay: Platelet-activating factor (Paf)-induced oxygen radical release from alveolar macrophages (guinea pig); format: cell-based; conditions: Cavia porcellus, Macrophage
Description: as §1
3. Platelet-activating factor (Paf)-induced oxygen radical release from alveolar macrophages (guinea pig)

[3] = tested on: Allergic bronchoconstriction; assay: Allergic bronchoconstriction according to Konzett-Rossler (rat); format: in vivo; conditions: iv
Description: as §1
3. Allergic bronchoconstriction according to Konzett-Rossler (rat)
Lit.: Naunyn-Schmiedeb. Arch. Exp. Pathol. Pharmakol. 195, 1940, p. 71-74

Row | IC50 (phosphordiesterase) [µM] | Structure (SMILES) | IC50 (mast cells) [nM] | IC50 (monocytes) [µM] | IC50 (5-Lipoxygenase) [µM] | Asthmatic late phase: inhibition [1] [%] | Bronchial hyperreactivity: inhibition [1] [%] | Bronchoconstriction: inhibition [1] [%] | inhibition of asthmatic late phase eosinophilia in the lung ([2]; 5 mg/kg/i.p.) [%] | inhibition of asthmatic late phase eosinophilia in the lung ([2]; 10 mg/kg/i.p.) [%] | IC50 (alveolar macrophages) [µM] | ED50 [3] [mg/kg]
1 | 7.34 | CN(C(=O)CCCCOc1ccc2[nH]c(=O)c3cccn3c2n1)C1CCCCC1 [D 20169] | – | – | – | – | – | – | – | – | – | –
2 | 15.1 | CNC(=O)CCCOc1ccc2[nH]c(=O)c3cccn3c2n1 [Example 98] | – | – | – | – | – | – | – | – | – | –

Row | Structure (SMILES) | IC50 (phosphordiesterase) [µM] | IC50 (mast cells) [nM] | IC50 (monocytes) [µM] | IC50 (5-Lipoxygenase) [µM] | Asthmatic late phase: inhibition [1] [%] | Bronchial hyperreactivity: inhibition [1] [%] | Bronchoconstriction: inhibition [1] [%] | inhibition of asthmatic late phase eosinophilia in the lung ([2]; 5 mg/kg/i.p.) [%] | inhibition of asthmatic late phase eosinophilia in the lung ([2]; 10 mg/kg/i.p.) [%] | IC50 (alveolar macrophages) [µM] | ED50 [3] [mg/kg]
3 | O=c1[nH]c2ccc(O)nc2n2cccc12 [Example I, 4,5-Dihydro-8-hydroxy-4-oxo-pyrido[3,2-e]pyrrolo[1,2-a]pyrazine] | 32.2 | 700 | 4.5 | 12 | 51 | 51 | 49 | 67 | 98 | 6.1 | 0.5
